One assay relates to HeLa-Cyclophilin A cells. Description: Biosensor cell permeability assay, cyclophilin binding compounds. In kind it is cell-based. The settings on record: 72 hrs. As for the experimental part:
This protocol utilizes a modified FKBP or cyclophilin destabilizing mutant to determine the bioactivity of FKBP binding compounds or cyclophilin binding compounds in whole cell assay.
Plate HeLa-FKBP12 cells (for FKBP binding compounds) or HeLa-Cyclophilin A cells (for cyclophilin binding compounds) and seed overnight at 5 k/well (approximately ˜18 hrs.). Using a multi-channel pipet, take out the old media and add ˜125 ul of new media with compounds. Compounds are diluted using DMEM without Phenol Red, 10% FBS, 1× Sodium Pyruvate, 1× Glutamax. Add 125 ul of media with compound per well.
Cell binding/permeability is calculated in fold-change (Total RFU of treated samples/total RFU of DMSO treated samples or total RFU above background (Total RFU minus total RFU of DMSO treated samples).

A further assay concerns the target T1, Cyclophilin A (Homo sapiens, UniProt P62937).
T1 construct: made in house
Description: biochemical. In kind it is binding. As for the experimental part:
This protocol utilizes Perkin Elmers AlphaLISA technology platform to detect cyclosporine analogues by measuring the inhibition of binding of biotinylated Cyclosporin A to FLAG tagged Cyclophilin A.
Add 20 uL of 6 nM Biotinylated CsA working stock to each well of the 96-well plate. Add 1 uL of test compound (100% DMSO) to each well of the plate using the Janus MTD head and P20 tips (except control wells). Add 1 uL of DMSO to negative control wells and 1 uL of 500 uM Cyclosporin A solution to positive control wells. In the dark, add 20 uL of combined Donor/Acceptor beads to each well. Incubate in the dark for 30 minutes at room temperature. […] Incubate in the dark for 60 minutes at room temperature.

pIC50: −log10 of the molar value. Square brackets hold non-standard residues; d marks the D form. Peptide text beside a SMILES is read from it. MeBmt = C/C=C/C[C@@H](C)[C@@H](O)[C@H](NC)C(=O)O; NMepY = CN[C@@H](Cc1ccc(OP(=O)(O)O)cc1)C(=O)O; NMeF = CN[C@@H](Cc1ccccc1)C(=O)O; NMeL = CN[C@@H](CC(C)C)C(=O)O; NMeV = CN[C@H](C(=O)O)C(C)C; Abu = CC[C@H](N)C(=O)O; Sar = CNCC(=O)O

These results are taken from patent publication US10039839B2, “Compounds that participate in cooperative binding and uses thereof” (Warp Drive Bio, Inc., priority 2015, dated 2018).

T1 sequence (P62937 whole entry, species assumed): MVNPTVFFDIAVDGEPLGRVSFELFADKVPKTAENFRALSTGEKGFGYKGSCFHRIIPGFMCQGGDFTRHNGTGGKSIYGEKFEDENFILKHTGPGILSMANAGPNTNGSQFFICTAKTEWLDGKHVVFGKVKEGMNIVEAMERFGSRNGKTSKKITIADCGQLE

For orientation: pIC50 means the negative decadic logarithm of the IC50, by convention in mol/L. Read a high pIC50 as a low IC50. `C/C=C/C[C@@H](C)[C@@H](O)[C@H]1C(=O)N[C@@H](CC)C(=O)N(C)CC(=O)N(C)[C@@H](Cc2ccccc2)C(=O)N[C@@H](C(C)C)C(=O)N(C)[C@@H](CC(C)C)C(=O)N[C@@H](C)C(=O)N[C@H](C)C(=O)N(C)[C@@H](CC(C)C)C(=O)N(C)[C@@H](CC(C)C)C(=O)N(C)[C@@H](C(C)C)C(=O)N1C` [C36] (cyclo([MeBmt][Abu][Sar][NMeF]V[NMeL]A[dA][NMeL][NMeL][NMeV])) gave a pIC50 in the assay on HeLa-Cyclophilin A cells greater than 5.52.
Turning to `C/C=C/C[C@@H](C)[C@@H](O)[C@H]1C(=O)N[C@@H](CC)C(=O)N(C)CC(=O)N(C)[C@@H](C(C)C)C(=O)N[C@@H](C(C)C)C(=O)N(C)[C@@H](CC(C)C)C(=O)N[C@@H](C)C(=O)N[C@H](C)C(=O)N(C)[C@@H](CC(C)C)C(=O)N(C)[C@@H](CC(C)C)C(=O)N(C)[C@@H](C(C)C)C(=O)N1C` [C40] (cyclo([MeBmt][Abu][Sar][NMeV]V[NMeL]A[dA][NMeL][NMeL][NMeV])), the pIC50 was greater than 5.52 in the assay with HeLa-Cyclophilin A cells and greater than 5.70 against Cyclophilin A.
In the same order, the values of `C/C=C/C[C@@H](C)[C@@H](O)[C@H]1C(=O)N[C@@H](CC)C(=O)N(C)CC(=O)N(C)[C@@H](Cc2ccc(OP(=O)(O)O)cc2)C(=O)N[C@@H](C(C)C)C(=O)N(C)[C@@H](CC(C)C)C(=O)N[C@@H](C)C(=O)N[C@H](C)C(=O)N(C)[C@@H](CC(C)C)C(=O)N(C)[C@@H](CC(C)C)C(=O)N(C)[C@@H](C(C)C)C(=O)N1C` [C41] (cyclo([MeBmt][Abu][Sar][NMepY]V[NMeL]A[dA][NMeL][NMeL][NMeV])) are less than 5.52 and greater than 5.70.
